Measured values taken from BindingDB's records for doi:10.1021/acsmedchemlett.5b00147 (Therachem Research Medilab (India), 2015).

Assay: Antagonist activity against PAR2 in human HT29 cells assessed as inhibition of UTP-induced Ca2+ responses pre-incubated for 30 mins before UTP stimulation by FLIPR assay

SMILES: CCOC(=O)[C@H]1CCCN(C(=O)c2cn3nc(-c4ccc(F)cc4)cc(C(F)(F)F)c3n2)[C@@H]1C
- IC50: 4.4 µM
